Earlier results, collected in US20260308141A1, “SYNTHESIS OF ORELLANINE” (ONCORENA AB, priority 2023, published 2026).

Columns and labels:
human renal cancer cells [1] = system: human renal cancer cells
human renal cancer cells [2] = system: human renal cancer cells; remark: listed apart in the source

For `[O-][n+]1ccc(O)c(O)c1-c1c(O)c(O)cc[n+]1[O-]` [Orellanine], the “progress of cell death” value (human renal cancer cells [1]; after transient exposure to Orellanine) is given as “progressed for many days”, the “killing of human renal cancer cells” value (human renal cancer cells [1]; cells derived from a primary tumor or from metastatic tumor tissue) is given as “killed them with great efficiency” and the “active uptake and retention by the cells (inferred from progressing cell death)” value (human renal cancer cells [2]; after transient exposure) is given as “actively taken up and retained by the cells”. For the same molecule, the “uptake in human renal cancer cells” value (human renal cancer cells [2]; human renal cancer cells, primary or metastatic) was “taken up in human renal cancer cells”.
